Publication PMC6516726 (ACS Catalysis, 2018)
Where two headings read alike, the source gives them in different places.

What was measured:
[1] = target: WT PETNR (Enterobacter cloacae, UniProt P71278); test: Stopped-flow FMN reduction (reductive half-reaction, hydride transfer) of WT PETNR by coenzyme; details: for kobs1: 10 mM NADPH or 25 mM NADH, pH 7.0
[2] = target: L25I PETNR (Enterobacter cloacae, UniProt P71278, L26I); details: for kobs1 / A2 (amplitude of kobs2 out of total absorbance change) / kobs2: 10 mM NADPH or 25 mM NADH, pH 7.0
L25I PETNR, sequence (P71278 entry or part of it L26I): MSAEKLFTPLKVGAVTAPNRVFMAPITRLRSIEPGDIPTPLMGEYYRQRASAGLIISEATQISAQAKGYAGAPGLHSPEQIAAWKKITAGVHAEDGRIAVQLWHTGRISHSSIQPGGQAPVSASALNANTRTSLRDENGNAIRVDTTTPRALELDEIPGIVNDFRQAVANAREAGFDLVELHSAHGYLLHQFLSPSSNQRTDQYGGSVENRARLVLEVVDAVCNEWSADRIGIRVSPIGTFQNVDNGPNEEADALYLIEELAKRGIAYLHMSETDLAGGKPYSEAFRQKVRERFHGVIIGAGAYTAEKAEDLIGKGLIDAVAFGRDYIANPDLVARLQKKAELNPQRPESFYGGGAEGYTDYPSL

[3] = target: L25A PETNR (Enterobacter cloacae, UniProt P71278, L26A); details: for kobs1 / A2 (amplitude of kobs2 out of total absorbance change) / kobs2: pH 7.0
L25A PETNR, sequence (P71278 entry or part of it L26A): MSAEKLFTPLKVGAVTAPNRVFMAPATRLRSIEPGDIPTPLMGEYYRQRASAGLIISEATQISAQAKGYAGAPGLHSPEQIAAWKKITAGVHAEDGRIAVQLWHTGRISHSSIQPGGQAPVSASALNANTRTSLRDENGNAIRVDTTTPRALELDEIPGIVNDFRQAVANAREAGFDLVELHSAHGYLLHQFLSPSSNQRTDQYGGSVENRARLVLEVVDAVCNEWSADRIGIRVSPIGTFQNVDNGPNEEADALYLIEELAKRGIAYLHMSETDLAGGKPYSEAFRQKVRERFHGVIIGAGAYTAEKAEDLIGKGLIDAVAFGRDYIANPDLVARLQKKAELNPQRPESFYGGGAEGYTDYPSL

[4] = 25 °C, 50 mM potassium phosphate pH 7.0, 20 μM enzyme
[5] = 25 °C, 50 mM potassium phosphate pH 7.0, 20 μM enzyme, fast phase
[6] = T0 = 298 K, fit of kobs1 (5–40 °C) to eq 1
[7] = 25 °C, 10 mM NADPH or 25 mM NADH
[8] = 30 °C, 10 mM NADPH or 25 mM NADH
[9] = 35 °C, 10 mM NADPH or 25 mM NADH
[10] = 40 °C, third phase, 10 mM NADPH or 25 mM NADH
[11] = 40 °C, 10 mM NADPH or 25 mM NADH

WT PETNR, sequence (P71278 entry or part of it): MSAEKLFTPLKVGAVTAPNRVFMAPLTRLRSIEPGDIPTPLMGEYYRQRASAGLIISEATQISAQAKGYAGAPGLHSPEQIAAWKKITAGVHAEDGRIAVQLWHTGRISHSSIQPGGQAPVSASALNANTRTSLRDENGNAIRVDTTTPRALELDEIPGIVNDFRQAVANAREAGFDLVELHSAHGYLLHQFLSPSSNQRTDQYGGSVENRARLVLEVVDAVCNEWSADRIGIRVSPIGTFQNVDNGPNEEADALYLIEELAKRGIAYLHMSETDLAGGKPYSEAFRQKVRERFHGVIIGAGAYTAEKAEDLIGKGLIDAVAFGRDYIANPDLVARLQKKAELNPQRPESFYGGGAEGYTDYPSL

## NC(=O)C1=CN([C@@H]2O[C@H](COP(=O)(O)OP(=O)(O)OC[C@H]3O[C@@H](n4cnc5c(N)ncnc54)[C@H](O)[C@@H]3O)[C@@H](O)[C@H]2O)C=CC1 [NADH]
[1]; 5 °C
  kobs1: 0.73 ± 0.01 s⁻¹
[1]; 10 °C
  kobs1: 0.92 ± 0.01 s⁻¹
[1]; 15 °C
  kobs1: 1.17 ± 0.01 s⁻¹
[1]; 20 °C
  kobs1: 1.51 ± 0.01 s⁻¹
[1]; [4]
  KS: 1067 ± 13 µM
[1]; [5]
  kred: 2.03 ± 0.01 s^–1
[1]; 25 °C
  kobs1: 1.95 ± 0.01 s⁻¹
[1]; 30 °C
  kobs1: 2.53 ± 0.02 s⁻¹
[1]; 35 °C
  kobs1: 3.30 ± 0.01 s⁻¹
[1]; 40 °C
  kobs1: 4.25 ± 0.02 s⁻¹
[1]; [6]
  ΔCp^⧧: 0.39 ± 0.03 kJ mol^–1 K^–1
  ΔHT0^⧧: 35.4 ± 0.1 kJ mol^–1
  ΔST0^⧧: –120.5 ± 0.5 J mol^–1 K^–1
[2]; 5 °C
  kobs1: 0.49 ± 0.01 s⁻¹
[2]; 10 °C
  kobs1: 0.66 ± 0.01 s⁻¹
[2]; 15 °C
  kobs1: 0.90 ± 0.01 s⁻¹
[2]; 20 °C
  kobs1: 1.20 ± 0.01 s⁻¹
[2]; [4]
  KS: 306 ± 40 µM
[2]; [5]
  kred: 1.74 ± 0.04 s^–1
[2]; 25 °C
  A2 (amplitude of kobs2 out of total absorbance change): 6.40 ± 2.07%
  kobs1: 1.77 ± 0.06 s⁻¹
  kobs2: 0.36 ± 0.10 s⁻¹
[2]; 30 °C
  A2 (amplitude of kobs2 out of total absorbance change): 6.86 ± 1.61%
  kobs1: 2.39 ± 0.06 s⁻¹
  kobs2: 0.39 ± 0.09 s⁻¹
[2]; 35 °C
  A2 (amplitude of kobs2 out of total absorbance change): 8.92 ± 1.01%
  kobs1: 3.26 ± 0.07 s⁻¹
  kobs2: 0.49 ± 0.07 s⁻¹
[2]; 40 °C
  A2 (amplitude of kobs2 out of total absorbance change): 12.28 ± 1.93%
  kobs1: 4.26 ± 0.13 s⁻¹
  kobs2: 0.58 ± 0.05 s⁻¹
[2]; [6]
  ΔCp^⧧: 0.32 ± 0.18 kJ mol^–1 K^–1
  ΔHT0^⧧: 42.7 ± 1.7 kJ mol^–1
  ΔST0^⧧: –97.7 ± 6.0 J mol^–1 K^–1
[3]; 5 °C, 10 mM NADPH or 25 mM NADH
  kobs1: 1.27 ± 0.01 s⁻¹
[3]; 10 °C, 10 mM NADPH or 25 mM NADH
  kobs1: 1.61 ± 0.01 s⁻¹
[3]; 15 °C, 10 mM NADPH or 25 mM NADH
  kobs1: 2.03 ± 0.01 s⁻¹
[3]; 20 °C, 10 mM NADPH or 25 mM NADH
  kobs1: 2.63 ± 0.03 s⁻¹
[3]; [4]
  KS: 2294 ± 91 µM
[3]; [5]
  kred: 3.62 ± 0.04 s^–1
[3]; [7]
  A2 (amplitude of kobs2 out of total absorbance change): 2.29 ± 0.92%
  kobs1: 3.33 ± 0.07 s⁻¹
  kobs2: 0.09 ± 0.06 s⁻¹
[3]; [8]
  A2 (amplitude of kobs2 out of total absorbance change): 4.93 ± 0.85%
  kobs1: 4.23 ± 0.06 s⁻¹
  kobs2: 0.08 ± 0.01 s⁻¹
[3]; [9]
  A2 (amplitude of kobs2 out of total absorbance change): 12.72 ± 0.74%
  kobs1: 5.20 ± 0.11 s⁻¹
  kobs2: 0.11 ± 0.01 s⁻¹
[3]; [10]
  A3 (amplitude of third phase): 19.01 ± 3.17%
  kobs3: 1.10 ± 0.0
[3]; [11]
  A2 (amplitude of kobs2 out of total absorbance change): 20.40 ± 1.48%
  kobs1: 6.74 ± 0.37 s⁻¹
  kobs2: 0.13 ± 0.01 s⁻¹
[3]; [6]
  ΔCp^⧧: 0.28 ± 0.05 kJ mol^–1 K^–1
  ΔHT0^⧧: 33.6 ± 0.5 kJ mol^–1
  ΔST0^⧧: –122.1 ± 1.7 J mol^–1 K^–1
